Experimental data published in patent US6960574B2, “Antagonists of RF-amide neuropeptides” (University of Florida, priority 2002, dated 2005).
Square brackets hold non-standard residues; d marks the D form. Peptide text beside a SMILES is read from it. * marks the point of attachment. ξ: configuration not given here. Dansyl = CN(C)c1cccc2c(S(=O)(=O)*)cccc12; ξL = CC(C)CC(N)C(=O)O

Test system: receptor labeled by the radioiodinated analogue of 1 (4, [125I]-YLFQPQRF-NH2); neuropeptide FF receptor
Test: Competitive radioligand binding against 4 ([125I]Y8F-amide)
Details: mixture-based positional scanning; difference from averaged radioligand displacement of whole library (0); about 80 a.u. = 10-fold change in Ki

Structure (SMILES) | Relative Binding Index (RBI) [a.u.]
CC(C)C[C@H](NS(=O)(=O)c1cccc2c(N(C)C)cccc12)C(=O)N[C@H](C(=O)N[C@@H](CCCNC(=N)N)C(N)=O)[C@@H](C)O [Dansyl-LTR-amide] (Dansyl-Leu-Thr-Arg-NH2) | −26
CC(C)C[C@H](NS(=O)(=O)c1cccc2c(N(C)C)cccc12)C(=O)N[C@H](C(=O)N[C@@H](CCCNC(=N)N)C(N)=O)C(C)C [Dansyl-LVR-amide] (Dansyl-Leu-Val-Arg-NH2) | −37
CC(C)C[C@H](NS(=O)(=O)c1cccc2c(N(C)C)cccc12)C(=O)N[C@@H](Cc1c[nH]c2ccccc12)C(=O)N[C@@H](CCCNC(=N)N)C(N)=O [Dansyl-LWR-amide] (Dansyl-Leu-Trp-Arg-NH2) | −23
CC(C)C[C@H](NS(=O)(=O)c1cccc2c(N(C)C)cccc12)C(=O)N[C@@H](Cc1ccc(O)cc1)C(=O)N[C@@H](CCCNC(=N)N)C(N)=O [Dansyl-LYR-amide] (Dansyl-Leu-Tyr-Arg-NH2) | −33
CSCC[C@H](NS(=O)(=O)c1cccc2c(N(C)C)cccc12)C(=O)N[C@@H](C)C(=O)N[C@@H](CCCNC(=N)N)C(N)=O [Dansyl-MAR-amide] (Dansyl-Met-Ala-Arg-NH2) | −93
CSCC[C@H](NS(=O)(=O)c1cccc2c(N(C)C)cccc12)C(=O)N[C@@H](CC(=O)O)C(=O)N[C@@H](CCCNC(=N)N)C(N)=O [Dansyl-MDR-amide] (Dansyl-Met-Asp-Arg-NH2) | −62
CSCC[C@H](NS(=O)(=O)c1cccc2c(N(C)C)cccc12)C(=O)N[C@@H](CCC(=O)O)C(=O)N[C@@H](CCCNC(=N)N)C(N)=O [Dansyl-MER-amide] (Dansyl-Met-Glu-Arg-NH2) | −44
CSCC[C@H](NS(=O)(=O)c1cccc2c(N(C)C)cccc12)C(=O)N[C@@H](Cc1ccccc1)C(=O)N[C@@H](CCCNC(=N)N)C(N)=O [Dansyl-MFR-amide] (Dansyl-Met-Phe-Arg-NH2) | −45
CSCC[C@H](NS(=O)(=O)c1cccc2c(N(C)C)cccc12)C(=O)NCC(=O)N[C@@H](CCCNC(=N)N)C(N)=O [Dansyl-MGR-amide] (Dansyl-Met-Gly-Arg-NH2) | −39
CSCC[C@H](NS(=O)(=O)c1cccc2c(N(C)C)cccc12)C(=O)N[C@@H](Cc1c[nH]cn1)C(=O)N[C@@H](CCCNC(=N)N)C(N)=O [Dansyl-MHR-amide] (Dansyl-Met-His-Arg-NH2) | −50
CC[C@H](C)[C@H](NC(=O)[C@H](CCSC)NS(=O)(=O)c1cccc2c(N(C)C)cccc12)C(=O)N[C@@H](CCCNC(=N)N)C(N)=O [Dansyl-MIR-amide] (Dansyl-Met-Ile-Arg-NH2) | −37
CSCC[C@H](NS(=O)(=O)c1cccc2c(N(C)C)cccc12)C(=O)N[C@@H](CCCCN)C(=O)N[C@@H](CCCNC(=N)N)C(N)=O [Dansyl-MKR-amide] (Dansyl-Met-Lys-Arg-NH2) | −46
CSCC[C@H](NS(=O)(=O)c1cccc2c(N(C)C)cccc12)C(=O)N[C@@H](CC(C)C)C(=O)N[C@@H](CCCNC(=N)N)C(N)=O [Dansyl-MLR-amide] (Dansyl-Met-Leu-Arg-NH2) | −52
CSCC[C@H](NC(=O)[C@H](CCSC)NS(=O)(=O)c1cccc2c(N(C)C)cccc12)C(=O)N[C@@H](CCCNC(=N)N)C(N)=O [Dansyl-MMR-amide] (Dansyl-Met-Met-Arg-NH2) | −44
CSCC[C@H](NS(=O)(=O)c1cccc2c(N(C)C)cccc12)C(=O)N[C@@H](CC(N)=O)C(=O)N[C@@H](CCCNC(=N)N)C(N)=O [Dansyl-MNR-amide] | −43
CSCC[C@H](NS(=O)(=O)c1cccc2c(N(C)C)cccc12)C(=O)N1CCC[C@H]1C(=O)N[C@@H](CCCNC(=N)N)C(N)=O [Dansyl-MPR-amide] (Dansyl-Met-Pro-Arg-NH2) | −41
CSCC[C@H](NS(=O)(=O)c1cccc2c(N(C)C)cccc12)C(=O)N[C@@H](CCC(N)=O)C(=O)N[C@@H](CCCNC(=N)N)C(N)=O [Dansyl-MQR-amide] (Dansyl-Met-Gln-Arg-NH2) | −30
CSCC[C@H](NS(=O)(=O)c1cccc2c(N(C)C)cccc12)C(=O)N[C@@H](CCCNC(=N)N)C(=O)N[C@@H](CCCNC(=N)N)C(N)=O [Dansyl-MRR-amide] (Dansyl-Met-Arg-Arg-NH2) | −45
CSCC[C@H](NS(=O)(=O)c1cccc2c(N(C)C)cccc12)C(=O)N[C@@H](CO)C(=O)N[C@@H](CCCNC(=N)N)C(N)=O [Dansyl-MSR-amide] (Dansyl-Met-Ser-Arg-NH2) | −23
CSCC[C@H](NS(=O)(=O)c1cccc2c(N(C)C)cccc12)C(=O)N[C@H](C(=O)N[C@@H](CCCNC(=N)N)C(N)=O)[C@@H](C)O [Dansyl-MTR-amide] (Dansyl-Met-Thr-Arg-NH2) | −38

Structure (SMILES) | Relative Binding Index (RBI) [a.u.]
CSCC[C@H](NS(=O)(=O)c1cccc2c(N(C)C)cccc12)C(=O)N[C@H](C(=O)N[C@@H](CCCNC(=N)N)C(N)=O)C(C)C [Dansyl-MVR-amide] (Dansyl-Met-Val-Arg-NH2) | −49
CSCC[C@H](NS(=O)(=O)c1cccc2c(N(C)C)cccc12)C(=O)N[C@@H](Cc1c[nH]c2ccccc12)C(=O)N[C@@H](CCCNC(=N)N)C(N)=O [Dansyl-MWR-amide] (Dansyl-Met-Trp-Arg-NH2) | −35
CSCC[C@H](NS(=O)(=O)c1cccc2c(N(C)C)cccc12)C(=O)N[C@@H](Cc1ccc(O)cc1)C(=O)N[C@@H](CCCNC(=N)N)C(N)=O [Dansyl-MYR-amide] (Dansyl-Met-Tyr-Arg-NH2) | −45
C[C@H](NC(=O)[C@H](CC(N)=O)NS(=O)(=O)c1cccc2c(N(C)C)cccc12)C(=O)N[C@@H](CCCNC(=N)N)C(N)=O [Dansyl-NAR-amide] (Dansyl-Asn-Ala-Arg-NH2) | −36
CN(C)c1cccc2c(S(=O)(=O)N[C@@H](CC(N)=O)C(=O)N[C@@H](CC(=O)O)C(=O)N[C@@H](CCCNC(=N)N)C(N)=O)cccc12 [Dansyl-NDR-amide] (Dansyl-Asn-Asp-Arg-NH2) | −5
CN(C)c1cccc2c(S(=O)(=O)N[C@@H](CC(N)=O)C(=O)N[C@@H](Cc3ccccc3)C(=O)N[C@@H](CCCNC(=N)N)C(N)=O)cccc12 [Dansyl-NFR-amide] (Dansyl-Asn-Phe-Arg-NH2) | 11
CN(C)c1cccc2c(S(=O)(=O)N[C@@H](CC(N)=O)C(=O)NCC(=O)N[C@@H](CCCNC(=N)N)C(N)=O)cccc12 [Dansyl-NGR-amide] (Dansyl-Asn-Gly-Arg-NH2) | 18
CN(C)c1cccc2c(S(=O)(=O)N[C@@H](CC(N)=O)C(=O)N[C@@H](Cc3c[nH]cn3)C(=O)N[C@@H](CCCNC(=N)N)C(N)=O)cccc12 [Dansyl-NHR-amide] (Dansyl-Asn-His-Arg-NH2) | 7
CC[C@H](C)[C@H](NC(=O)[C@H](CC(N)=O)NS(=O)(=O)c1cccc2c(N(C)C)cccc12)C(=O)N[C@@H](CCCNC(=N)N)C(N)=O [Dansyl-NIR-amide] (Dansyl-Asn-Ile-Arg-NH2) | 19
CN(C)c1cccc2c(S(=O)(=O)N[C@@H](CC(N)=O)C(=O)N[C@@H](CCCCN)C(=O)N[C@@H](CCCNC(=N)N)C(N)=O)cccc12 [Dansyl-NKR-amide] (Dansyl-Asn-Lys-Arg-NH2) | 10
CC(C)CC(NC(=O)[C@H](CC(N)=O)NS(=O)(=O)c1cccc2c(N(C)C)cccc12)C(=O)N[C@@H](CCCNC(=N)N)C(N)=O (stereo partly drawn) [Dansyl-NLR-amide] (Dansyl-Asn-[ξL]-Arg-NH2) | 4
CSCC[C@H](NC(=O)[C@H](CC(N)=O)NS(=O)(=O)c1cccc2c(N(C)C)cccc12)C(=O)N[C@@H](CCCNC(=N)N)C(N)=O [Dansyl-NMR-amide] (Dansyl-Asn-Met-Arg-NH2) | 13
CN(C)c1cccc2c(S(=O)(=O)N[C@@H](CC(N)=O)C(=O)N[C@@H](CC(N)=O)C(=O)N[C@@H](CCCNC(=N)N)C(N)=O)cccc12 [Dansyl-NNR-amide] (Dansyl-Asn-Asn-Arg-NH2) | 14
CN(C)c1cccc2c(S(=O)(=O)N[C@@H](CC(N)=O)C(=O)N3CCC[C@H]3C(=O)N[C@@H](CCCNC(=N)N)C(N)=O)cccc12 [Dansyl-NPR-amide] (Dansyl-Asn-Pro-Arg-NH2) | 16
CN(C)c1cccc2c(S(=O)(=O)N[C@@H](CC(N)=O)C(=O)N[C@@H](CCC(N)=O)C(=O)N[C@@H](CCCNC(=N)N)C(N)=O)cccc12 [Dansyl-NQR-amide] (Dansyl-Asn-Gln-Arg-NH2) | 26
CN(C)c1cccc2c(S(=O)(=O)N[C@@H](CC(N)=O)C(=O)N[C@@H](CCCNC(=N)N)C(=O)N[C@@H](CCCNC(=N)N)C(N)=O)cccc12 [Dansyl-NRR-amide] (Dansyl-Asn-Arg-Arg-NH2) | 11
CN(C)c1cccc2c(S(=O)(=O)N[C@@H](CC(N)=O)C(=O)N[C@@H](CO)C(=O)N[C@@H](CCCNC(=N)N)C(N)=O)cccc12 [Dansyl-NSR-amide] (Dansyl-Asn-Ser-Arg-NH2) | 33
C[C@@H](O)[C@H](NC(=O)[C@H](CC(N)=O)NS(=O)(=O)c1cccc2c(N(C)C)cccc12)C(=O)N[C@@H](CCCNC(=N)N)C(N)=O [Dansyl-NTR-amide] (Dansyl-Asn-Thr-Arg-NH2) | 18
CC(C)[C@H](NC(=O)[C@H](CC(N)=O)NS(=O)(=O)c1cccc2c(N(C)C)cccc12)C(=O)N[C@@H](CCCNC(=N)N)C(N)=O [Dansyl-NVR-amide] (Dansyl-Asn-Val-Arg-NH2) | 8
